Read-outs that look alike come from different tables or passages of the source.
Key:
Assay type in all cases: biochemical
MKP1 = biological target: T1, MKP1 (Homo sapiens, UniProt P28562); test: in vitro PTPase assay, GST/MKP1; details: for inhibition of MKP1: levamisole, pentamidine, ketoconazole
T1 construct: a pGEX construct containing the coding region of MKP1 cDNA derived by RT-PCR; made in house; host or cells: DH5a bacteria (E. coli)
T1 sequence (P28562 1-367): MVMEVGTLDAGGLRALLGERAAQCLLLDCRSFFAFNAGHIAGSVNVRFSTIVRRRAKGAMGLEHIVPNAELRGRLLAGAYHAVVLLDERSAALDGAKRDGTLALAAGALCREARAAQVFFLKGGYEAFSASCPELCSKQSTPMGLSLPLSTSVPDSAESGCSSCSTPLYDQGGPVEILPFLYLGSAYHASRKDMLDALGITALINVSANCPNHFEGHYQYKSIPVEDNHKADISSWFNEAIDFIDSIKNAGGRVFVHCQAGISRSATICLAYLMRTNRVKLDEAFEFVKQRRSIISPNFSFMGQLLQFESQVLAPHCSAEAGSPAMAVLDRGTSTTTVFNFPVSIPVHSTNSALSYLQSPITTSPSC
Description: In vitro PTPase activities were measured using the commercial protein tyrosine phosphatase assay kit (Upstate Biotechnology, Inc. (“UBI”)) following established procedure known to one of skill in the art. This assay measures the in vitro dephosphorylation of a synthetic phosphotyrosine peptide of the sequence Arg-Arg-Leu-Ile-Glu-Asp-Ala-Gle-T- -yr-Ala-Ala-Arg-Gly, wherein the tyrosine is phosphorylated (SEQ ID NO: 3). Briefly, 0.01 μg of GST/PTPase fusion proteins was incubated in 50 μl of Tris buffer (10 mM Tris, pH 7.4) containing different concentrations of inhibitors or chemicals (0-1,000 μg/ml) at 22° C. for 10 minutes, followed by addition of 0.2 mM of the phosphotyrosine peptide and incubation at 22° C. for 18 hours. 100 μl of Malachite Green solution was added and incubated for 5 minutes, and the absorbance at 660 nm was measured after 5 minutes.
(§1) In vitro PTPase assays were used to determine the effects of levamisole (Sigma), pentamidine (American Pharmaceutical Partners, Inc.), and ketoconazole (Sigma) on recombinant PTPases, following established procedures (Pathak et al., J. Immunol. 167, 3391 (2001); Pathak et al., Leukemia 16, 2285 (2002), Yi et al., J. Immunol. 169, 5978 (2002)) using a synthetic phosphotyrosine peptide or DiFMUP as the substrate as detailed above in section I.A.2.

PRL-1 = biological target: T2, PRL-1 (Homo sapiens, UniProt Q93096); test: in vitro PTPase assay, recombinant PRL-1; details: 0.1-100 μg/ml
T2 construct: cDNAs of human PRL-1, PRL-2 and PRL-3 coding region were derived by RT-PCR; made in house; host or cells: DH5a bacteria (E. coli)
From the text: (§2) Sodium stibogluconate, suramin, sodium orthovanadate and GST fusion protein of SHP-1 have been described previously (Pathak et al., J. Immunol. 167, 3391 (2001)). Meglumine antimonate was obtained from Aventis. cDNAs of human PRL-1, PRL-2 and PRL-3 coding region were derived by RT-PCR from H9 cells (Safai, et al., Lancet 1, 1438 (1984)) and inserted in frame into the pGEX vector. cDNA of PRL-1R86 was generated by recombinant DNA technique using PRL-1 cDNA as template following established procedures (Jiao, et al., Mol. Cell. Biol. 16, 6985 (1996)). […]
(§3) In vitro PTPase assays were used to determine the effects of compounds on recombinant PTPases, following established procedures using a synthetic phosphotyrosine peptide or DiFMUP as the substrate (Pathak et al., J. Immunol. 167, 3391 (2001)). […] PTPase activity of individual reactions was measured by adding 100 μL of malachite green solution (UBI) and then quantifying the amounts of free phosphate cleaved by the PTPase from the peptide substrate by spectrometry (OD660 nm). […] Relative PTPase activities were calculated based on the formula: (PTPase activity in the presence of an inhibitory compound/PTPase activity in the absence of the compound)× 100%. […]

PRL-2 = biological target: T3, PRL-2 (Homo sapiens, UniProt Q12974); test: in vitro PTPase assay, recombinant PRL-2
T3 construct: cDNAs of human PRL-1, PRL-2 and PRL-3 coding region were derived by RT-PCR; made in house; host or cells: DH5a bacteria (E. coli)
From the text: as §2, §3

PRL-3 = biological target: T4, PRL-3 (Homo sapiens, UniProt O75365); test: in vitro PTPase assay, recombinant PRL-3; details: for remaining PRL-3 PTPase activity: 0.1-100 μg/ml
T4 construct: cDNAs of human PRL-1, PRL-2 and PRL-3 coding region were derived by RT-PCR; made in house; host or cells: DH5a bacteria (E. coli)
From the text: Sodium stibogluconate, suramin, sodium orthovanadate and GST fusion protein of SHP-1 have been described previously (Pathak et al., J. Immunol. 167, 3391 (2001)). Meglumine antimonate was obtained from Aventis. cDNAs of human PRL-1, PRL-2 and PRL-3 coding region were derived by RT-PCR from H9 cells (Safai, et al., Lancet 1, 1438 (1984)) and inserted in frame into the pGEX vector. cDNA of PRL-1R86 was generated by recombinant DNA technique using PRL-1 cDNA as template following established procedures (Jiao, et al., Mol. Cell. Biol. 16, 6985 (1996)). GST fusion proteins of the PRL phosphatases were prepared from DH5a bacteria transformed with the pGEX fusion protein constructs as described previously (Yi, et al., Mol. Cell. Biol. 12, 836 (1992)). cDNAs encoding the PRLs tagged at the N-termini with the Flag epitope (Castrucci, et al., J. Virol. 66, 4647 (1992)) were generated via recombinant DNA technique, sequenced to confirm their identities and cloned into the pBabepuro vector (Yang, et al., Blood 91, 3746 (1998)). Anti-Flag monoclonal antibody (M2, Sigma) was purchased from a commercial source. A synthetic phosphotyrosine peptide (Arg-Arg-Leu-Ile-Glu-Asp-Ala-Gle-Tyr-Al- -a-Ala-Arg-Gly (SEQ ID NO: 3), wherein the tyrosine is phosphorylated; UBI) and DiFMUP (6, 8-difluoro-4-methylumbelliferyl phosphate, Molecular Probes) were purchased as substrates for PTPase assays.
In vitro PTPase assays were used to determine the effects of compounds on recombinant PTPases, following established procedures using a synthetic phosphotyrosine peptide or DiFMUP as the substrate (Pathak et al., J. Immunol. 167, 3391 (2001)). Briefly, individual PTPases (0.1 μg/reaction) in 50 μL of PTPase buffer (50 mM Tris, pH 7.4) were incubated at 22° C. for 10 minutes or as indicated in the absence or presence of inhibitory compounds. Substrates (0.2 mM phosphotyrosine peptide) were then added and allowed to react at 22° C. for 18 hrs. PTPase activity of individual reactions was measured by adding 100 μL of malachite green solution (UBI) and then quantifying the amounts of free phosphate cleaved by the PTPase from the peptide substrate by spectrometry (OD660 nm). PTPase assays using DiFMUP as a substrate were conducted following a previously described procedure (Matter, et al., Biochem. Biophys. Res. Comm. 283, 1061 (2001)). Relative PTPase activities were calculated based on the formula: (PTPase activity in the presence of an inhibitory compound/PTPase activity in the absence of the compound)× 100%. To assess the reversibility of PTPase inhibition, GST fusion proteins of the PTPases bound on glutathione beads (Pharmacia) were pre-incubated with cold Tris buffer (50 mM Tris, pH 7.0) or Tris buffer containing the inhibitor at 4° C. for 30 minutes. The beads were then washed three times in cold Tris buffer or not washed prior to subjecting to in vitro PTPase assays.

GSTm8 = test: in vitro PTPase assay, GSTm8; details: 3-4 μg/ml or 10-100 μg/ml
From the text: as §1

T4 sequence (O75365 whole entry): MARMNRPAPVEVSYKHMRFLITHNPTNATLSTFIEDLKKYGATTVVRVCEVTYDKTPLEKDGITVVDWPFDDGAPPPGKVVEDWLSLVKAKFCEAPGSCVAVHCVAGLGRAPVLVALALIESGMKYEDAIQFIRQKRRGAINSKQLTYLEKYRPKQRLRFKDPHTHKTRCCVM
T2 sequence (Q93096 whole entry): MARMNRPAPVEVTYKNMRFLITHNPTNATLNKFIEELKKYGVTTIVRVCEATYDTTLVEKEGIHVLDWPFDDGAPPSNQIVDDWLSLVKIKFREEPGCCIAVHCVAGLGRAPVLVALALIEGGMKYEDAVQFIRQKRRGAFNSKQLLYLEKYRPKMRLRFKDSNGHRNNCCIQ
T3 sequence (Q12974 whole entry): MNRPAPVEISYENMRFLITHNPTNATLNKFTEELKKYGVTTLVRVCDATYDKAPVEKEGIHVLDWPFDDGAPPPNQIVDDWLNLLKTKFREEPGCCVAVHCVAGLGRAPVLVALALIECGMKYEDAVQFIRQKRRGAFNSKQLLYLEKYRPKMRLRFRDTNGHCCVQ

| inhibition of MKP1 (MKP1) | retained PRL-1 PTPase activity (PRL-1) | activity against PRL-2 (PRL-2) | remaining PRL-3 PTPase activity (PRL-3) | inhibitory activity against GSTm8 (GSTm8) | SMILES | inhibitory activity against MKP1 (MKP1) | inhibitory activity against MKP1 (MKP1; listed as SS) | inhibition of PRL-3 after washing (PRL-3) | inactivation of PRL-3 with prolonged pre-incubation (PRL-3; 10 μg/ml, pre-incubation 30 or 60 minutes) |
| --- | --- | --- | --- | --- | --- | --- | --- | --- | --- |
| substantial inhibition | 60-70% | not effective | 25-40% | no obvious inhibitory activity | CC(=O)N1CCN(c2ccc(OCC3COC(Cn4ccnc4)(c4ccc(Cl)cc4Cl)O3)cc2)CC1 (centres unmarked) [ketoconazole] |  |  |  |  |
| substantial inhibition | 70-80% | not effective | 20-30% | no obvious inhibitory activity | N=C(N)c1ccc(OCCCCCOc2ccc(C(=N)N)cc2)cc1 [pentamidine] |  |  |  |  |
|  |  |  |  |  | O.O.O.O.O.O.O.O.O.O=C([O-])[C@@H]1[O][Sb]2([O-])([O][Sb]34([OH])[O][C@H]([C@H](O)CO)[C@H]([O]3)[C@H](C(=O)[O-])[O]4)[O][C@H]([C@H](O)CO)[C@@H]1[O]2.[Na+].[Na+].[Na+] [sodium stibogluconate] | no obvious inhibitory activity | no obvious effects | not relieved by a washing process | nearly complete inactivation |

From patent US20070202079A1, “Therapeutic compositions and methods useful in modulating protein tyrosine phosphatases” (priority 2006, published 2007)
